Patent publication US20090053290A1, “TRANSDERMAL DRUG DELIVERY COMPOSITIONS AND TOPICAL COMPOSITIONS FOR APPLICATION ON THE SKIN” (priority 2006, published 2009)

Assays:
onychomycosis = settings: nail lacquer, topical; cited from earlier work
NIH 3T3 cells = settings: mouse, 72 h
Description: NIH 3T3 cells were used in these studies. Cells were cultured in 24-well plates at a density of 5×10^6 cells/well in 10% FBS/DMEM overnight. […] Cells were incubated for 72 hours before cell counting and morphological studies.

collagenase = format: biochemical
Description: Tissue integrity was checked at the end of the incubation using a standard histological method (hematoxylin-eosin (H&E)). […] At predetermined intervals, 1.0 mL of solution was taken out and filtered through a 0.45-μM cellulose filter to separate solubilized collagen from insolubilized matrix. The amount of solubilized collagen was determined after total acid hydrolysis in 6N HCl for 24 hours at 100° C. by measuring hydroxyproline. The results are expressed as a percentage of the total collagen solubilized.

Fischer 344 rats = system: Fischer 344 rats
Description: Three-week-old Fischer 344 rats were obtained from Harlan Sprague Dawley, Inc. (Indianapolis, Ind.). NIH and University of Southern California IACUC guidelines for the care and use of laboratory animals were observed. […] The samples were retrieved after 3 and 6 weeks post-operation, and samples were processed for H&E and von Kossa staining, the latter to determine the extent of calcification.

bovine tendon = experiment: Melting temperature measurement of fixed tissue (cross-linking), tendon; settings: 48 hours; PA 0.5% in PBS, GA 0.625% in PBS; n = 3; in °C
Description: (§1) The fixed tissues and fresh tissues were assayed for their melting temperature by heating tissue strips (1×2 cm^2, n=3). The melting temperature was recorded when tissues started to shrink.

bovine pericardium = experiment: Melting temperature measurement of fixed tissue (cross-linking), pericardium; settings: 48 hours; PA 0.5% in PBS, GA 0.625% in PBS; n = 3; in °C
Description: as §1

human skin fibroblasts = experiment: Cell proliferation and collagen synthesis of fibroblasts cultured on treated pericardium; format: cell-based; settings: p<0.005 for treated pericardium, FIG. 9
Description: Discs, 15 mm in diameter, were punched out from PA-treated bovine pericardium and inserted into the bottom of 24-well plates. After washing and equilibrating with PBS, human skin fibroblasts (8×10^4/well, third passage kindly provided by Dr. Warren Garner, University of Southern California) were placed on top of the tissues. After 48 hours of culture in 10% FBS/DMEM, the medium was changed to a labeling medium ([^3H]thymidine, 10 μCi/mL, 0.5% FBS/DMEM) followed by a 24 hour labeling period. Cell proliferation was assayed and collagen synthesis recorded as [^3H]OH-proline incorporation in a culture medium containing 25 μg/mL ascorbic acid, 25 μg/mL β-APN and 25 μCi/mL [^3H]proline in 0.5% FBS/DMEM after labeling for 48 hours.

[1] = in vivo; cited from earlier work
[2] = in vivo; cited from earlier work; remark: listed apart in the source

Cc1cc(C2CCCCC2)n(O)c(=O)c1 [Ciclopirox]
cure rate (onychomycosis): < 10%

O=CCCCC=O [GA, glutaraldehyde]
concentration above which cells could not survive (NIH 3T3 cells): greater than 0.6 μg/mL | concentration at which cytotoxicity was observed (NIH 3T3 cells): ≤ 600 ng/mL | collagen fibril structure after 24 hours of collagenase digestion (H&E) (collagenase): remained intact | degradation of fixed tissue after subcutaneous implantation (summary) (Fischer 344 rats; periods ranging from 3 and 6 weeks): no apparent degradation | calcification of implant (Von Kossa staining) (Fischer 344 rats; rat, in vivo, sc): dystrophic calcification | implant degradation, six weeks postoperatively (Fischer 344 rats; subcutaneous): still intact | implant integrity, three weeks postoperatively (Fischer 344 rats; subcutaneous): retained their integrity | tissue reaction to implant, one week postoperatively (Fischer 344 rats; subcutaneous, treated pericardium, H&E): lesser inflammatory reaction | Melting temperature, tendon (bovine tendon): 84 ± 1.0 | Melting temperature, pericardium (bovine pericardium): 94 ± 1.5 | collagen synthesis / deposition (hydroxyproline incorporation) (human skin fibroblasts): inhibit collagen synthesis

CC1=C(/C=C/C(C)=C/C=C/C(C)=C/C(=O)O)C(C)(C)CCC1 [tretinoin, All-trans-retinoic acid]
absorption [1]: less than 2%

CC(=O)Oc1ccccc1C(=O)O [Aspirin, aspirin]
period of inhibition of blood clotting [2]: 4 to 7 days
